Experimental data from patent US7371867B2, “Non-racemic trifluoroleucine, and methods of making and using” (Trustees of Tufts College, priority 2001, dated 2008).

melting point: 85 to 91 °C
SMILES: CC(C)(C)OC(=O)N[C@@H](CC(C(F)(F)F)C(F)(F)F)C(=O)O [Peptide 5, N-Boc-5,5,5,5′,5′,5′-(S)-Hexafluoroleucine]
